Measurements as given in PMC4623604, “Discovery of Small Molecules that Inhibit the Disordered Protein, p27^Kip1” (Scientific Reports, 2015).

Tests used:
p27-KID = biological target: T1, p27-KID (Homo sapiens, UniProt P46527); assay: NMR fragment screening and 2D 1H-15N HSQC chemical shift perturbation mapping; assay type: binding; design: key to Binding Group (site of chemical shift perturbations in p27-KID): Molecules in Group 1 bound to a localized region, F87YY89; molecules in Group 2 bound to this region as well as two others containing two W residues (W60 and W76); settings: 2D 1H-15N HSQC, 100 μM 15N-p27-KID
T1 construct: 6xHis (N, cleaved yes); made in house; host or cells: E. coli (pET28a)
Description: We used one-dimensional (1D) ^1H WaterLOGSY[35] and STD[36] […] Fragment molecules were selected from either a commercial library (1,100 compounds from the Ro3 collection, Maybridge/Thermo Fisher Scientific) or an in-house library of 1,222 compounds based on the “Rule of Three”[40] and other criteria (see Methods). […] Binding sites for these compounds were identified by titration into ^15N-p27-KID and analysis of two-dimensional (2D) ^1H-^15N HSQC spectra. […] We termed these molecules Groups 1 and 2, respectively (Fig. 1b,c); representative ^1H CSP histograms are shown in Fig. 1d,e, and ^15N CSPs are presented in Suppl. Fig. 2. Data for all other small molecules are shown in Suppl. Fig. 3.
Screening and validation NMR experiments were performed at 298 K (25 °C) using either a Varian Inova 600 MHz spectrometer equipped with a triple resonance (HCN) room temperature gradient probe or a Bruker Avance 600 MHz spectrometer equipped with TCI cryogenic gradient probe and a SampleJet sample changer. Fragment molecules were initially analyzed as pools of five molecules dissolved at 10 mM each in DMSO-D6. […] For initial fragment screening experiments, one-dimensional (1D) ^1H- and WaterLOGSY[35] NMR spectra were recorded for compound pools without and with protein. […] DMSO-D6 was added to maintain a constant concentration (2% vol/vol). […] Tryptophan and tyrosine, respectively, were titrated into ^15N-p27-KID (100 μM) up to 3 mM. Three-dimensional (3D) backbone triple-resonance experiments to establish resonance assignments for the p27 constructs were performed using the Bruker Avance 600 MHz spectrometer. […] Fig. 12b,c and d,e, respectively. 2D ^1H-^15N TROSY-HSQC NMR experiments with ^2H/^13C/^15N-p27-D2/Cdk2/cyclin A and SJ403 have been recorded at 308 K (35 °C). 2D ^1H-^15N HSQC experiments of representative fragment hits (1 mM of SJ319843, group 1 and SJ403, group 2, respectively) with ^15N-p21-KID (20 μM) were recorded at 298 K using a Bruker Avance 600 MHz spectrometer. NMR spectra were processed using Bruker Topspin software and analyzed using computer-aided resonance assignment (CARA) software.
Chemical shift perturbations are generally quantified as combined ^1H and ^15N chemical shift values. […] Thus, the use of a combined chemical shift values would mask the effects of compound binding. […] Thus, the assessment of statistical significance was based upon whether a particular CSP value was larger than, i) the experimental spectral resolution in the given dimension (^1H or ^15N) and ii) the quantity, Δδave + 2σ, for that dimension.

p21-KID = biological target: T2, p21-KID (Homo sapiens, UniProt P38936); assay: 2D 1H-15N HSQC NMR with p21-KID; assay type: binding; settings: 1 mM compound, 20 μM p21-KID, 298 K
T2 construct: made in house
Method: Figure 8 Interaction of p21-KID with representative p27 fragment hits.
Screening and validation NMR experiments were performed at 298 K (25 °C) using either a Varian Inova 600 MHz spectrometer equipped with a triple resonance (HCN) room temperature gradient probe or a Bruker Avance 600 MHz spectrometer equipped with TCI cryogenic gradient probe and a SampleJet sample changer. Fragment molecules were initially analyzed as pools of five molecules dissolved at 10 mM each in DMSO-D6. […] For initial fragment screening experiments, one-dimensional (1D) ^1H- and WaterLOGSY[35] NMR spectra were recorded for compound pools without and with protein. […] DMSO-D6 was added to maintain a constant concentration (2% vol/vol). […] Tryptophan and tyrosine, respectively, were titrated into ^15N-p27-KID (100 μM) up to 3 mM. […] 2D ^1H-^15N TROSY-HSQC NMR experiments with ^2H/^13C/^15N-p27-D2/Cdk2/cyclin A and SJ403 have been recorded at 308 K (35 °C). 2D ^1H-^15N HSQC experiments of representative fragment hits (1 mM of SJ319843, group 1 and SJ403, group 2, respectively) with ^15N-p21-KID (20 μM) were recorded at 298 K using a Bruker Avance 600 MHz spectrometer. NMR spectra were processed using Bruker Topspin software and analyzed using computer-aided resonance assignment (CARA) software.

p27-KID mutants [1] = biological target: T3, p27-KID mutants (Homo sapiens, UniProt P46527, Y88A); assay: 2D NMR binding mapping with p27-KID mutants
T3 construct: 6xHis (N, cleaved yes); made in house; host or cells: E. coli (pET28a)
Description: (§1) (Fig. 7a–c); these interaction sites are all within the Cdk2-binding D2 sub-domain. […] In fact, sub-domain D2 contains eight of the nine aromatic amino acids found within p27; a ninth, F33, is found within sub-domain D1 but […] to small molecules. Group 1 molecules caused the largest CSPs for residues F87, Y88 and Y89 within sub-region D2.3 and Group 2 molecules perturbed resonances for these residues as well as for residues W60, N61 (sub-region D2.1) and E75, W76 and Q77 (sub-region D2.2).
(§2) The p27 constructs were expressed in E. Coli with an N-terminal 6xHis affinity tag after sub-cloning into pET28a (Novagen) using established procedures. […]
(§3) Screening and validation NMR experiments were performed at 298 K (25 °C) using either a Varian Inova 600 MHz spectrometer equipped with a triple resonance (HCN) room temperature gradient probe or a Bruker Avance 600 MHz spectrometer equipped with TCI cryogenic gradient probe and a SampleJet sample changer. Fragment molecules were initially analyzed as pools of five molecules dissolved at 10 mM each in DMSO-D6. […] NMR spectra were recorded for compound pools without and with protein. […] 2D ^1H-^15N TROSY-HSQC NMR experiments with ^2H/^13C/^15N-p27-D2/Cdk2/cyclin A and SJ403 have been recorded at 308 K (35 °C). […] NMR spectra were processed using Bruker Topspin software and analyzed using computer-aided resonance assignment (CARA) software.

p27-KID mutants [2] = assay: 2D NMR binding mapping with p27-KID mutants; design: species or system human
Description: as §1, §2, §3

T1 sequence (P46527 22-105): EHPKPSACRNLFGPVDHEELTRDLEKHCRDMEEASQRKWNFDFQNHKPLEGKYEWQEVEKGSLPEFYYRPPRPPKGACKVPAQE
T2 sequence (P38936 9-84 limits assumed): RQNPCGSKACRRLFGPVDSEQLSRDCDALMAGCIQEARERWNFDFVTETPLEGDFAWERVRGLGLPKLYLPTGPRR
T3 sequence (P46527 22-105 Y88A): as the sequence (P46527 22-105) above, with Y67A counted along it

CCn1c(C)c(C)n2c3c(=O)n(C)c(=O)n(C)c3nc12 [SJ403]
Binding Group (site of chemical shift perturbations in p27-KID) (p27-KID): Group 2
interaction with p21-KID (1H chemical shift perturbations) (p21-KID): interacted with residues near W49 and W65 of p21
CSPs with Y88 to A p27-KID mutant (p27-KID mutants [1]): caused CSPs near the two W residues (W60 or W76) but not within the F87A88Y89 region
CSPs with doubly mutated p27-KID variants (W60A-W76A, W60F-W76F) (p27-KID mutants [2]): only very weak CSPs within the F87YY89 aromatic cluster
